US9049863B2, “Substituted (3R,4R)-4-cyan-3,4-diphenylbutanoates, method for the production thereof and use thereof as herbicides and plant growth regulators” (Bayer Intellectual Property GmbH, priority 2011, dated 2015)

Tested on: a plurality of harmful plants
Experiment: Herbicidal pre-emergence action
Assay type: in vivo
Details: 320 g or less of active substance per hectare
From the text: Seeds of monocotyledonous and dicotyledonous weed plants and crop plants are placed in wood-fiber pots in sandy loam and covered with soil. The compounds (I) according to the invention, formulated in the form of wettable powders (WP), are then applied as aqueous suspension or emulsion at a water application rate of 600 l/ha (converted) with the addition of 0.2% of wetting agent to the surface of the covering soil.
After the treatment, the pots are placed in a greenhouse and kept under good growth conditions for the test plants. After about 3 weeks, the effect of the preparations is scored visually in comparison with untreated controls as percentages. For example, 100% activity=the plants have died, 50% herbicidal activity or damage=the plants have been reduced by 50% or the plant mass has been reduced by 50%, 0% activity=like control plants.

Row | Structure (SMILES) | herbicidal activity against a plurality of harmful plants
1 | COC(=O)C[C@@H](c1cccc(F)c1)[C@@H](C#N)c1cccc(F)c1 [Example 2] | good herbicidal activity
2 | COC(=O)C[C@@H](c1ccc(Cl)cc1)[C@@H](C#N)c1ccc(F)c(F)c1 [Example 3] | good herbicidal activity
3 | COC(=O)C[C@@H](c1ccc(Br)cc1)[C@@H](C#N)c1cccc(F)c1 [Example 4] | good herbicidal activity
4 | COC(=O)C[C@@H](c1cccc(F)c1)[C@@H](C#N)c1cccc(Cl)c1 [Example 5] | good herbicidal activity
5 | COC(=O)C[C@@H](c1cccc(F)c1)[C@@H](C#N)c1ccc(F)c(F)c1 [Example 6] | good herbicidal activity
6 | COC(=O)C[C@@H](c1cccc(F)c1)[C@@H](C#N)c1ccccc1 [Example 7] | good herbicidal activity
7 | COC(=O)C[C@@H](c1cccc(F)c1)[C@@H](C#N)c1ccc(F)cc1 [Example 8] | good herbicidal activity
8 | COC(=O)C[C@@H](c1cccc(Cl)c1)[C@@H](C#N)c1cccc(F)c1 [Example 9] | good herbicidal activity
9 | COC(=O)C[C@@H](c1cccc(Cl)c1)[C@@H](C#N)c1ccc(F)c(F)c1 [Example 10, Methyl (3R,4R)-3-(3-chlorophenyl)-4-cyano-4-(3,4-difluorophenyl)butanoate] | good herbicidal activity
10 | COC(=O)C[C@@H](c1cccc(F)c1)[C@@H](C#N)c1cccc(Br)c1 [Example 11] | good herbicidal activity
11 | COC(=O)C[C@@H](c1cccc(F)c1)[C@@H](C#N)c1cc(F)cc(F)c1 [Example 12] | good herbicidal activity
12 | COC(=O)C[C@@H](c1ccccc1F)[C@@H](C#N)c1cccc(F)c1 [Example 13] | good herbicidal activity
13 | COC(=O)C[C@@H](c1ccc(Cl)cc1)[C@@H](C#N)c1cc(F)c(F)c(F)c1 [Example 14] | good herbicidal activity
14 | COC(=O)C[C@@H](c1cccc(Cl)c1)[C@@H](C#N)c1ccc(F)cc1 [Example 15] | good herbicidal activity
15 | COC(=O)C[C@@H](c1ccc(Cl)c(F)c1)[C@@H](C#N)c1ccc(F)c(F)c1 [Example 16] | good herbicidal activity
16 | COC(=O)C[C@@H](c1ccccc1F)[C@@H](C#N)c1ccc(F)c(F)c1 [Example 17] | good herbicidal activity
17 | COC(=O)C[C@@H](c1cccc(F)c1F)[C@@H](C#N)c1cccc(F)c1 [Example 18] | good herbicidal activity
18 | COC(=O)C[C@@H](c1cc(F)cc(F)c1)[C@@H](C#N)c1ccc(F)cc1 [Example 19] | good herbicidal activity
19 | COC(=O)C[C@@H](c1ccc(F)cc1)[C@@H](C#N)c1cccc(F)c1 [Example 20] | good herbicidal activity

Row | Structure (SMILES) | herbicidal activity against a plurality of harmful plants
20 | COC(=O)C[C@@H](c1cc(F)cc(Cl)c1)[C@@H](C#N)c1ccc(F)c(F)c1 [Example 21] | good herbicidal activity
21 | COC(=O)C[C@@H](c1cc(F)cc(Cl)c1)[C@@H](C#N)c1cccc(F)c1 [Example 22] | good herbicidal activity
22 | COC(=O)C[C@@H](c1cc(F)ccc1F)[C@@H](C#N)c1cccc(F)c1 [Example 23] | good herbicidal activity
23 | COC(=O)C[C@@H](c1cccc(F)c1F)[C@@H](C#N)c1ccc(F)c(F)c1 [Example 24] | good herbicidal activity
24 | COC(=O)C[C@@H](c1cc(F)ccc1F)[C@@H](C#N)c1ccc(F)c(F)c1 [Example 25] | good herbicidal activity
25 | COC(=O)C[C@@H](c1cc(F)cc(Cl)c1)[C@@H](C#N)c1cccc(Cl)c1 [Example 26] | good herbicidal activity
26 | COC(=O)C[C@@H](c1cccc(Cl)c1)[C@@H](C#N)c1ccc(Cl)c(F)c1 [Example 27] | good herbicidal activity
27 | COC(=O)C[C@@H](c1cccc([N+](=O)[O-])c1)[C@@H](C#N)c1ccc(F)c(F)c1 [Example 28] | good herbicidal activity
28 | COC(=O)C[C@@H](c1ccccc1)[C@@H](C#N)c1ccc(F)c(F)c1 [Example 29] | good herbicidal activity
29 | COC(=O)C[C@@H](c1cccc(F)c1)[C@@H](C#N)c1ccc(F)c(Cl)c1 [Example 30] | good herbicidal activity
30 | CCOC(=O)C[C@@H](c1ccc(OC)cc1)[C@@H](C#N)c1ccc(F)c(F)c1 [Example 31] | good herbicidal activity
31 | N#C[C@@H](c1cccc(F)c1)[C@@H](CC(=O)OC1COC1)c1ccc(Cl)cc1 [Example 53] | good herbicidal activity
32 | N#C[C@@H](c1cccc(F)c1)[C@@H](CC(=O)OCCSc1ccccc1)c1ccc(Cl)cc1 [Example 54] | good herbicidal activity
33 | N#C[C@@H](c1cccc(F)c1)[C@@H](CC(=O)OCC[S+]([O-])c1ccccc1)c1ccc(Cl)cc1 (some centres unmarked) [Example 55] | good herbicidal activity
34 | CCOC(=O)C[C@@H](c1cccc(F)c1)[C@@H](C#N)c1ccc(F)c(F)c1 [Example 83] | good herbicidal activity
35 | CCCOC(=O)C[C@@H](c1cccc(F)c1)[C@@H](C#N)c1ccc(F)c(F)c1 [Example 84] | good herbicidal activity
36 | CC(C)OC(=O)C[C@@H](c1cccc(F)c1)[C@@H](C#N)c1ccc(F)c(F)c1 [Example 85] | good herbicidal activity
37 | CC(C)COC(=O)C[C@@H](c1cccc(F)c1)[C@@H](C#N)c1ccc(F)c(F)c1 [Example 87] | good herbicidal activity
38 | N#C[C@@H](c1ccc(F)c(F)c1)[C@@H](CC(=O)O)c1cccc(Cl)c1 [Example 107, (3R,4R)-3-(3-Chlorophenyl)-4-cyano-4-(3,4-difluorophenyl)butanoic acid] | good herbicidal activity

Row | Structure (SMILES) | herbicidal activity against a plurality of harmful plants
39 | CCOC(=O)C[C@@H](c1cccc(Cl)c1)[C@@H](C#N)c1ccc(F)c(F)c1 [Example 108] | good herbicidal activity
40 | CCCCOC(=O)C[C@@H](c1cccc(Cl)c1)[C@@H](C#N)c1ccc(F)c(F)c1 [Example 111] | good herbicidal activity
41 | CC(C)COC(=O)C[C@@H](c1cccc(Cl)c1)[C@@H](C#N)c1ccc(F)c(F)c1 [Example 112] | good herbicidal activity
42 | COC(=O)C[C@@H](c1c(F)cccc1F)[C@@H](C#N)c1cccc(F)c1 [Example 162] | good herbicidal activity
43 | COC(=O)C[C@@H](c1c(F)cccc1F)[C@@H](C#N)c1ccc(F)c(F)c1 [Example 174] | good herbicidal activity
44 | COC(=O)C[C@@H](c1cc(F)ccc1F)[C@@H](C#N)c1ccc(Cl)c(Cl)c1 [Example 208] | good herbicidal activity
45 | COC(=O)C[C@@H](c1c(F)cccc1F)[C@@H](C#N)c1ccc(F)c(Cl)c1 [Example 227] | good herbicidal activity
46 | CCOC(=O)C[C@@H](c1c(F)cccc1F)[C@@H](C#N)c1ccc(F)c(F)c1 [Example 283] | good herbicidal activity
47 | COC(=O)C[C@@H](c1cccc(Cl)c1)[C@@H](C#N)c1cccc(C#N)c1 [Example 326] | good herbicidal activity
48 | COC(=O)C[C@@H](c1ccc(Cl)cc1)[C@@H](C#N)c1cccc(C#N)c1 [Example 329] | good herbicidal activity
49 | COC(=O)C[C@@H](c1cc(F)ccc1F)[C@@H](C#N)c1cccc(C#N)c1 [Example 330] | good herbicidal activity
50 | COC(=O)C[C@@H](c1cccc(F)c1)[C@@H](C#N)c1ccc(F)c(C#N)c1 [Example 339] | good herbicidal activity
51 | COC(=O)C[C@@H](c1cccc(Cl)c1)[C@@H](C#N)c1ccc(F)c(C#N)c1 [Example 340] | good herbicidal activity
52 | COC(=O)C[C@@H](c1ccc(Cl)cc1)[C@@H](C#N)c1ccc(F)c(C#N)c1 [Example 343] | good herbicidal activity
53 | COC(=O)C[C@@H](c1cc(F)ccc1F)[C@@H](C#N)c1ccc(F)c(C#N)c1 [Example 344] | good herbicidal activity
54 | COC(=O)C[C@@H](c1cc(F)ccc1F)[C@@H](C#N)c1ccc(F)c(Br)c1 [Example 358] | good herbicidal activity
55 | COC(=O)C[C@@H](c1c(F)cccc1F)[C@@H](C#N)c1ccc(F)c(Br)c1 [Example 359] | good herbicidal activity
56 | COC(=O)C[C@@H](c1ccc(OC)c(F)c1)[C@@H](C#N)c1ccc(F)c(F)c1 [Example 390] | good herbicidal activity
